What is called LD50 is the dose at which mortality reaches 50%. Higher therefore signals lower toxicity. As usually defined, the inhibition is the change of the read-out against control, counted positive when it falls.

This is an account of results in US20070059385A1, “Safe pharmaceutical composition for treating and preventing cancer and method of use” (priority 2005, published 2007).

Data set [1] is described as follows: Toxic dose for mice (LD50). In kind it is in vivo.
For another data set, the system named is cancer cells. In words: Inhibition of tumor cell proliferation. It is filed as cell-based. The settings on record: Homo sapiens; 1 μg/ml drug, 72 hours; read-out: Inhibition (%) of growth of cancer cells. Here is the method: Human tumor cell lines: Hela leukemia HL-60, malignant melanocarcinoma B 16, oral epidermoid carcinoma (KB), lung carcinoma (A549), breast carcinoma MCF-7, adenocarcinoma of stomach.
Animal tumor cell lines: Walker carcinoma, LLC-WRC-256, malignant melanoma (RMMI 1846), 3T3, and S-1 80 sarcoma (CCRF-180). All lines were routinely cultured in the RPMI1640 medium supplemented 20% fetal calf serum. The experiment was carried out in 96 microplate, each well had 5×10^5 cells and given desired concentration of 1 μg/ml (1×10^−6 g/ml) drug. Then the plate was incubated at 37° C. in an atmosphere of humidified air enriched with 5 percent carbon dioxide for 72 hours. Inhibition percent rate of tumor cell proliferation was obtained according to the bellow formula. [formula]

The test system of the next data set is TA97. In words: Salmonella mutagenicity assay TA97. Here is the method: The method for detecting mutagenicity of HHT, with the Salmonella system that detects the reversion of the bacteria from His^− to His^+, is widely used.
The bacterial tester strains used for mutagenesis testing are TA97, TA98, TA100 and TA102. Mutagenesis testing method was done as described previously ^[77-88]. In brief, TA97, TA98, TA100 and TA102 were grown in agar gel culture. The petri plats (100×15 mm style) contain 30 ml with 2% glucose. The agar mixture was agitated vigorously and immediately poured into plates of minimal agar. The cultures were incubated at 37° C. in a dark and 5% CO2 in air for 48 hours. After 48 hours the colonies in both test and controls are counted. The presence of a background lawn of bacteria on the histidine-poor soft agar plate was used as an indication that gross toxic effects were absent. Mutagenicity assays were carried out at least in triplicate.
The range of spontaneous mutation rates for the individual strains, which were considered to be acceptable, was TA97 (100-170), TA98 (20-40) and TA100 (80-150).

A further data set has as its system tyrosine kinase (TK). Put plainly: Tyrosine kinase (TK) assay in HL-60 leukemia cells. It is filed as cell-based, human. Here is the method:
Tyrosine kinase (TK) Assay: TK was measured by a modification of the method of Braun et al. Briefly, H-60 leukemia cells were plated at a density of 5×10^5 cells in […], and divided control and treatments groups for incubation 24 hours at 37° C. with 5% CO2. The cells were collected by scraping, washed twice with phosphate-buffered saline, and resuspended at density of 10^6 cells/ml in 5 mM HEPEs buffer (pH 7.4). The cells were then resuspended in 1 ml of buffer containing 5 mM HEPES (pH 7.6), 1 mM MgCl2 and 1 mM EDTA, then placed on ice bath. The cell membrane was disrupted by ultra sound and centrifuged at 1,000×g for 10 minutes. The supernatant was ultra centrifuged at 30,000×g for 30 minutes at 4° C. The pellet was resuspended in 0.3 ml of buffer containing 25 mM HEOES, centrifuged at 12,000×g for 5 minutes. The resulting supernatant was used for TK assay. Content of protein was determined. 10 μg of protein placed in 20 mM HEPES (pH 7.6), 15 mM MgCl2, 10 mM ZnCl2 and 5% (v/v) nonidet P-40, with or without substrate [glutamic acid (GT), mg/ml]. After 5 minutes incubation at 25° C., the reaction was initiated by the addition of 25 μM [γ^32P] ATP (3 ci/mmol). After 10 minutes, the reaction was stopped by the addition of 20 mM cold ATP. 50 μl of the mixtures were spotted on glass microfiber filter discs and washed three times with cold trichloroacetic acid (TCA), contained 10 mM sodium pyrophosphate. Air dried. Radioactivity was determined by liquid scintillation spectrometry. The net TK activity was determined after correcting for endogenous TK activity.

As for `COC(=O)C[C@](O)(CCCC(C)(C)O)C(=O)O[C@@H]1C(OC)=C[C@]23CCCN2CCc2cc4c(cc2[C@H]13)OCO4` [HHT, Homoharringtonine], the mice died entry in data set [1] (38 normal mice, 2 mg/kg/day×5, observation period of 5 days) is recorded as “about 50%”. In data set [1] (mouse, in vivo, ip, mice, I.P.), the LD50 worked out at 3.17 ± 0.19 mg/kg. In addition, in the data set with cancer cells, the inhibition at 1 µg/mL stood at 73.8 ± 8.1%. For the same compound, the “Number of His^+ revertants/plate” value with TA97 (TA97 +S, 0.1 μg/plate) was determined as 145 ± 14 revertants/plate; in the data set on TA97 (TA97 +S, 1 μg/plate), 150 ± 14 revertants/plate; in the data set with TA97 (TA97 +S, 10 μg/plate) it was 165 ± 16 revertants/plate; in the data set on TA97 (TA97 +S, 100 μg/plate) it was 160 ± 17 revertants/plate; with TA97 (TA97 −S, 0.1 μg/plate), 120 ± 10 revertants/plate; with TA97 (TA97 −S, 1 μg/plate), 130 ± 11 revertants/plate. Moreover, the “Number of His^+ revertants/plate” value in the data set on TA97 (TA97 −S, 10 μg/plate) is 160 ± 16 revertants/plate; in the data set on TA97 (TA97 −S, 100 μg/plate) it was 150 ± 16 revertants/plate. Further, the “inhibition of HL-60 TK activity” value with tyrosine kinase (TK) (10^−7 M) is reported as 78.5%; in the data set on tyrosine kinase (TK) (10^−8 M), 12.2%. In addition, the “% of control activity (TK)” value in the data set with tyrosine kinase (TK) (HL-60 leukemia cells, 10^−6 M) is reported as 0.6%; in the data set with tyrosine kinase (TK) (HL-60 leukemia cells, 10^−8 M), 87.8 ± 12%; with tyrosine kinase (TK) (Table 8, concentration not given), 21.5 ± 4.0%.
